In US20260007674A1, “Novel Chemotypes for Treating Parasitic Diseases and Methods of Use” (The Medical College of Wisconsin, Inc., priority 2022, published 2026):
“Also recorded” adds a separate entry of the source.

Columns and labels:
S. mansoni [1] = test: Electron microscopy of tegument of treated S. mansoni; assay type: cell-based, Schistosoma mansoni; conditions: FIG. 17H, 17I
S. mansoni [2] = test: Murine model of schistosomiasis, worm burden; assay type: in vivo, mice; conditions: 50 mg/kg intraperitoneal 1× daily for 3 days, FIG. 16; for worm burden: Female Swiss Webster mice, 7 weeks post-infection, recovery four days after first treatment
Experimental: (§1) All animal experiments followed ethical regulations approved by the MCW IACUC committee. At 7 weeks post-infection, mice were randomly sorted into 4 groups of 13 mice. One group was left untreated as a control. A second group was treated with vehicle (a mixture of DMSO/PEG400/H2O). A third group was treated with praziquantel (50 mg/kg, intraperitoneal, 1× daily) for 3 days in a row. In addition, a fourth group was treated with BZQ/S55 in the same fashion as praziquantel. Four days after the first treatment, the mice were euthanized, and the mesenteric vasculature was dissected in the usual fashion to recover schistosomes. The worm burden from each mouse was individually plotted (FIG. 16). There was no significant difference between untreated mice and mice treated with vehicle, confirming that the vehicle the drugs were dosed in had no effect on worm burden.

S. mansoni [3] = test: Adult schistosome movement assay ex vivo (contraction and paralysis); assay type: cell-based, Schistosoma mansoni
Experimental: It was observed that N-amidoquinazolinones contract S. mansoni in a manner similar to the channel activator (and standard of treatment) praziquantel. Adult schistosomes were harvested from the mesenteric vasculature of female Swiss Webster mice previously infected (˜49 days earlier). Harvested schistosomes were washed in RPMI 1640 supplemented with 5% heat inactivated FBS, HEPES, and penicillin-streptomycin. After isolation, worms were incubated overnight in vented petri dishes. Movement assays were performed using male and female worms in six well dishes (˜5 individual worms/3 ml media per well). Schistosomes were treated with a molecule such as compound 4, and video recordings of worm motility were captured using a stereomicroscope coupled to a CCD camera. […] It was also observed that 2-amidoacrylates or 2-amidoacrylamides contract S. mansoni in a manner similar to the channel activator (and standard of treatment) praziquantel. The worm mobility assay performed in FIG. 13 is same as that performed in FIG. 3. Briefly, adult schistosomes were harvested from the mesenteric vasculature of female Swiss Webster mice previously infected (˜49 days earlier). Harvested schistosomes were washed in RPMI 1640 supplemented with 5% heat inactivated FBS, HEPES, and penicillin-streptomycin. After isolation, worms were incubated overnight in vented petri dishes. […]

[4] = Toxicity observation in treated mice of the schistosomiasis model; assay type: in vivo; conditions: 50 mg/kg intraperitoneal 1× daily for 3 days
Experimental: as §1

Fasciola hepatica = test: Ex vivo treatment of immature and adult F. hepatica (contraction, motility, viability); assay type: cell-based
Experimental: Briefly, Male Wistar rats served as the final host to obtain immature and adult stages of F. hepatica after infection with metacercariae from an Italian strain of F. hepatica. Immature flukes were collected from livers 4 weeks post-infection. Adult flukes were collected from bile ducts at 12 weeks post-infection. Worms were kept for 1 h in normal saline to allow clearance of gut contents and then used for experiments. In vitro experiments were performed utilizing a similar procedure as previously reported. Excised worms were treated with different concentrations of praziquantel, triclabendazole, BZQ/S55, S5, and S69, or DMSO as a negative control. The flukes were incubated at 37° C. in a 5% CO2 atmosphere for 72 h, and inhibitor-induced effects on worm viability were assessed using a stereomicroscope at 10× magnification. Worm motility was assessed using the following scores: 3 (normal motility), 2 (reduced motility), 1 (minimal and sporadic movements), and 0 (no movement even upon mechanical stimulation with forceps; considered dead). Representative results from these studies are shown FIGS. 17A-L.

F. hepatica = test: Electron microscopy of tegument of treated F. hepatica; assay type: cell-based, Fasciola hepatica; conditions: FIGS. 17K and 17L
Text: FIGS. 17A-L show representative BZQ/S55 ex vivo activities on Fasciola hepatica adults and immature worms.

O=C(Nn1c(-c2cccc(Cl)c2)nc2ccccc2c1=O)c1ccccc1 [BZQ/S55, N-(2-(3-chlorophenyl)-4-oxoquinazolin-3(4H)-yl)benzamide]
tegument of S. mansoni in electron microscopy image (S. mansoni [1]): tegument was destroyed | efficacy compared with praziquantel, the standard of treatment (S. mansoni [2]): as effective as praziquantel | worm burden (S. mansoni [2]): significant reduction in worm burden | effect on Schistosomes (S. mansoni [3]; treated with BZQ/S55, FIG. 17C): mimics praziquantel on schistosomes; also recorded: Rapid, sustained contraction and paralysis | toxicity [4]: no toxicity was noticed | ex vivo activity on Fasciola hepatica adults and immature worms (Fasciola hepatica; immature (4 weeks post-infection) and adult (12 weeks) flukes from rats): active ex vivo | effect on Fasciola hepatica (Fasciola hepatica; treated with BZQ/S55, FIG. 17C): Rapid, sustained contraction and paralysis | tegument of F. hepatica in electron microscopy image (F. hepatica): notable tegument damage

O=C(C1CCCCC1)N1CC(=O)N2CCc3ccccc3C2C1 (stereo not drawn) [Praziquantel, praziquantel, reference compound]
tegument of S. mansoni in electron microscopy image (S. mansoni [1]): tegument was destroyed | worm burden (S. mansoni [2]): significant reduction in worm burden | effect on Schistosomes (S. mansoni [3]; Praziquantel 500 nM, FIG. 17A): rapid, spastic paralysis | effect on Fasciola hepatica (Fasciola hepatica; praziquantel 50 μM, FIG. 17B): Neither treatment has an effect
